Laboratory results as given in patent US20230233425A1, “USE OF VOLATILE COMPOSITIONS TO LIMIT OR ELIMINATE THE PERCEPTION OF MALODOR” (Firmenich SA, priority 2017, published 2023).
“And” between values parts separate entries of the source, which are not always exact repeats. Equal entries are not always repeated. Where two headings read alike, the source gives them in different places. Marks after values point to notes of the source that are not given here.

Experiments:
[1] = target: Olfr748 (Mus musculus, UniProt E9Q9Z0); test: Indole antagonist dose-response, cAMP HTRF in HEK293T, vs indole EC80; format: cell-based; details: Table 23
Chain of Olfr748 (E9Q9Z0 entry or part of it): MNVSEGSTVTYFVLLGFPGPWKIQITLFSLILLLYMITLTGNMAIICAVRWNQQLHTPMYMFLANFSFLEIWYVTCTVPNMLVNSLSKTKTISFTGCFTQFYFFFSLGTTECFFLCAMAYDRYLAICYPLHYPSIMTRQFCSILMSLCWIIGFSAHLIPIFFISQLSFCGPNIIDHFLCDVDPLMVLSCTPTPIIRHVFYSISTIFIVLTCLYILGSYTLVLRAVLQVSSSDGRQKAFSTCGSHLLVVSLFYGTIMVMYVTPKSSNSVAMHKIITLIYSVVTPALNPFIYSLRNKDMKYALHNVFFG
Experimental: (§1) Using a cell-based assay, mouse receptor Olfr738, Olfr739, Olfr740, Olfr741, 0fr742, Olfr743, Olfr744, Olfr746, Olfr748 and Olfr749 were tested in an HEK293T cell line wherein the endogenous RTP1 gene has been activated and the odorant receptor chaperone was expressed (described in WO2016201153A1). The receptor genes were tagged with a Flag-Rho tag combination. Receptor genes were co-transfected with the canonical olfactory human G-protein alpha subunit Golf gene. Co-expression of the human Golf activates the Gs transduction pathway that leads to an internal cAMP increase upon binding to the appropriate ligand (indole here). Odorant-induced activity was detected by measuring the cAMP increase in the cytosol using an HTRF based kit (CisBio, cAMP dynamic 2 kit, cat. 62AM4PEJ).

[2] = target: Olfr740 (Mus musculus, UniProt E9PV79); test: as above; format: cell-based; details: vs indole EC80; for Emax: HEK-293T, read-out: Olfr740 % Inhibition; for IC50: read-out: Olfr740 IC50
Chain of Olfr740 (E9PV79 entry or part of it): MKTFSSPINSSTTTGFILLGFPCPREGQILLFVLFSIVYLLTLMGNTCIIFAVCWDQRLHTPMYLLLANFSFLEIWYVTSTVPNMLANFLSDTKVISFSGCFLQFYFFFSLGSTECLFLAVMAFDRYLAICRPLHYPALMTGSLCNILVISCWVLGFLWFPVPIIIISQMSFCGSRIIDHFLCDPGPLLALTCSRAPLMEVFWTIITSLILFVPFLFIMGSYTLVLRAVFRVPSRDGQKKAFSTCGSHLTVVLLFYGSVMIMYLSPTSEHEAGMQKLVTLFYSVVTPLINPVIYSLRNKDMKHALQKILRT
Experimental: as §1

[3] = target: Olfr742 (Mus musculus, UniProt A2RTP5); test: as above; format: cell-based; details: vs indole EC80; for Emax: HEK-293T, read-out: Olfr742 % Inhibition; for IC50: read-out: Olfr742 IC50
Chain of Olfr742 (A2RTP5 entry or part of it): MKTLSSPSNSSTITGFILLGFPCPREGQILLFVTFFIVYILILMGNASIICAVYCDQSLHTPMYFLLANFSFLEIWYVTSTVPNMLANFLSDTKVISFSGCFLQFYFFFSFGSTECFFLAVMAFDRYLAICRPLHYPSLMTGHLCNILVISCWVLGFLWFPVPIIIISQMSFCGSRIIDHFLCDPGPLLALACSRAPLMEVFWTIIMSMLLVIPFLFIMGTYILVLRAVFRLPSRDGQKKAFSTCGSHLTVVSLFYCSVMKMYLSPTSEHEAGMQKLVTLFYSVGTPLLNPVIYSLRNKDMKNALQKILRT
Experimental: as §1

[4] = target: Olfr741 (Mus musculus, UniProt L7N1Y5); test: as above; format: cell-based
Chain of Olfr741 (L7N1Y5 entry or part of it): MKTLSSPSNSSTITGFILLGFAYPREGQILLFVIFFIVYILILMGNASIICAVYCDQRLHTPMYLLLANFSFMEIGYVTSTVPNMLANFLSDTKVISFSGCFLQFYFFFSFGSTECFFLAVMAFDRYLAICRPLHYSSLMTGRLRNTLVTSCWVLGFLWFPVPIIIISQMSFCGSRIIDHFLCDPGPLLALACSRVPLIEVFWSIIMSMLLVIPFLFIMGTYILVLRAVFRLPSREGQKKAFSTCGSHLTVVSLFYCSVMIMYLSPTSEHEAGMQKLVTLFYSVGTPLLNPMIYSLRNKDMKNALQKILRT
Experimental: as §1

[5] = target: Olfr738 (Mus musculus, UniProt L7N1X7); test: as above; format: cell-based; details: vs indole EC80; for IC50: read-out: Olfr738 IC50
Chain of Olfr738 (L7N1X7 entry or part of it): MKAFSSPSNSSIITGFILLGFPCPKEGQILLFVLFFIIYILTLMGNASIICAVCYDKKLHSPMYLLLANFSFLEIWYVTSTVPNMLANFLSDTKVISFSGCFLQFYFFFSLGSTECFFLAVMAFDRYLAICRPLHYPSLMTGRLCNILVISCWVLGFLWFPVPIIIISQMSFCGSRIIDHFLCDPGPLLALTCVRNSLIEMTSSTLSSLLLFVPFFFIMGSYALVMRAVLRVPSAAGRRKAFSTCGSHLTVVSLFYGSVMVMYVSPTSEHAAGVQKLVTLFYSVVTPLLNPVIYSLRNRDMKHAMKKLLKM
Experimental: as §1

[6] = target: Olfr743 (Mus musculus, UniProt L7N1Y2); test: as above; format: cell-based; details: Table 23
Chain of Olfr743 (L7N1Y2 entry or part of it): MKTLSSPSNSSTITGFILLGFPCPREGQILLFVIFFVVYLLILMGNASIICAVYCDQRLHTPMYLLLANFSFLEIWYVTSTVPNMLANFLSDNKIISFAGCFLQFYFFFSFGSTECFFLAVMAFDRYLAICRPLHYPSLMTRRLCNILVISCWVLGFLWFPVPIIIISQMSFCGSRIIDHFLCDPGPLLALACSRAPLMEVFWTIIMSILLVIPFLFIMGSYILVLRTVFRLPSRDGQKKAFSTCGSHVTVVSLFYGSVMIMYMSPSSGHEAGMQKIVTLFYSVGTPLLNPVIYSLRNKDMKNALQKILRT
Experimental: as §1, with “Functional dose-response experiments were performed to identify compounds capable of antagonizing indole-sensitive receptors previously identified (U.S. Pat. No. 9,914,760 B2). Using” for “Using”, “62AM4PEJ). The receptors were exposed to binary mixtures of increasing concentrations of the test compounds in the presence of a potent activation concentration of indole (EC80) for each receptor. […] All the compounds listed decreased the indole induced activity of at least one receptor.” for “62AM4PEJ).”

[7] = target: Olfr739 (Mus musculus, UniProt E9Q1P0); test: as above; format: cell-based; details: for IC50: Table 22, first listing (r7-r45)
Chain of Olfr739 (E9Q1P0 entry or part of it): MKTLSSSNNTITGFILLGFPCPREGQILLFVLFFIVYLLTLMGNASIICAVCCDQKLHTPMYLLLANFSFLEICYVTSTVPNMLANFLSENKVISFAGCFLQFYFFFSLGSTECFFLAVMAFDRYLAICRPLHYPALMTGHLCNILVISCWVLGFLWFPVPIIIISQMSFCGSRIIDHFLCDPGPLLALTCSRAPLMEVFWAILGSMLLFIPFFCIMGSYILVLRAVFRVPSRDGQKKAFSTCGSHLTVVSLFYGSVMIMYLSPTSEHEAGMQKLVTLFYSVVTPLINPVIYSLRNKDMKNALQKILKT
Experimental: as §1, with “Functional dose-response experiments were performed to identify compounds capable of antagonizing indole-sensitive receptors previously identified (U.S. Pat. No. 9,914,760 B2). Using” for “Using”, “62AM4PEJ). The receptors were exposed to binary mixtures of increasing concentrations of the test compounds in the presence of a potent activation concentration of indole (EC80) for each receptor. […] All the compounds listed decreased the indole induced activity of at least one receptor.” for “62AM4PEJ).”

[8] = target: T1, Olfr749 (Mus musculus, UniProt E9Q438); test: as above; format: cell-based; details: Table 23
T1 construct: Flag; Rho tag; expressed in transfected cells
T1 sequence (E9Q438 1-313): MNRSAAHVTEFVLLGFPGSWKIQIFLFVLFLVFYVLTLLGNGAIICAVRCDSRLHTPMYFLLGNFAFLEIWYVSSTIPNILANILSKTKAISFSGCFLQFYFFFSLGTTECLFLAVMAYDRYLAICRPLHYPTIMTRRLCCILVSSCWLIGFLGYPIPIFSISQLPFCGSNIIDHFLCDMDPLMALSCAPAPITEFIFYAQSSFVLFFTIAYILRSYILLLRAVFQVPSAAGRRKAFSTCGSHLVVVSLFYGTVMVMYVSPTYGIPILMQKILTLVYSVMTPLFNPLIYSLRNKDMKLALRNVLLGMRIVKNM
Experimental: as §1, with “Functional dose-response experiments were performed to identify compounds capable of antagonizing indole-sensitive receptors previously identified (U.S. Pat. No. 9,914,760 B2). Using” for “Using”, “62AM4PEJ). The receptors were exposed to binary mixtures of increasing concentrations of the test compounds in the presence of a potent activation concentration of indole (EC80) for each receptor. […] All the compounds listed decreased the indole induced activity of at least one receptor.” for “62AM4PEJ).”

[9] = target: T2, Olfr744 (Mus musculus, UniProt Q7TRM0); test: as above; format: cell-based; details: Table 23
T2 construct: Flag; Rho tag; expressed in transfected cells
T2 sequence (Q7TRM0 1-323): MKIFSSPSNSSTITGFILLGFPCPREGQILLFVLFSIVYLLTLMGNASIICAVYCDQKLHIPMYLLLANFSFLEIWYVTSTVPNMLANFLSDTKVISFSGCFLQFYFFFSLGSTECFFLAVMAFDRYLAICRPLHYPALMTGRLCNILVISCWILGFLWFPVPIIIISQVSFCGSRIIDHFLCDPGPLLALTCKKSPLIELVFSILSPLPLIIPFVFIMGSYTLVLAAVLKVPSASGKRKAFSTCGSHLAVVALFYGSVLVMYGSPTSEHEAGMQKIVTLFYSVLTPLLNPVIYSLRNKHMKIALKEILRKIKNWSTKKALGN
Experimental: as §1, with “Functional dose-response experiments were performed to identify compounds capable of antagonizing indole-sensitive receptors previously identified (U.S. Pat. No. 9,914,760 B2). Using” for “Using”, “62AM4PEJ). The receptors were exposed to binary mixtures of increasing concentrations of the test compounds in the presence of a potent activation concentration of indole (EC80) for each receptor. […] All the compounds listed decreased the indole induced activity of at least one receptor.” for “62AM4PEJ).”

[10] = target: T3, Olfr746 (Mus musculus, UniProt E9Q840); test: as above; format: cell-based; details: Table 23
T3 construct: Flag; Rho tag; expressed in transfected cells
T3 sequence (E9Q840 1-314): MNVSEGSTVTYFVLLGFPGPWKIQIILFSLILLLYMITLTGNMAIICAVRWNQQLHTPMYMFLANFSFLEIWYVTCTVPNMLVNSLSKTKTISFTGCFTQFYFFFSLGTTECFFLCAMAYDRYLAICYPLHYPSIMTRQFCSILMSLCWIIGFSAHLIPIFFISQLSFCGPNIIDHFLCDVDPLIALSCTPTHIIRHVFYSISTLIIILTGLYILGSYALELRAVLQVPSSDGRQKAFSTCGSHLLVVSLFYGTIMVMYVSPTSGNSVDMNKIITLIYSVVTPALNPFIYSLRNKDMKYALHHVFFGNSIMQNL
Experimental: as §1, with “Functional dose-response experiments were performed to identify compounds capable of antagonizing indole-sensitive receptors previously identified (U.S. Pat. No. 9,914,760 B2). Using” for “Using”, “62AM4PEJ). The receptors were exposed to binary mixtures of increasing concentrations of the test compounds in the presence of a potent activation concentration of indole (EC80) for each receptor. […] All the compounds listed decreased the indole induced activity of at least one receptor.” for “62AM4PEJ).”

[11] = test system: OR11A1, or the OR2M3 olfactory receptor; test: Geonol olfactory receptor antagonist cell-based screening, inhibitory dose-response vs geonol EC80; design: species or system human; details: geonol at EC80; for IC50: read-out: IC50
[12] = test system: geonol earthy/moss odor perception; test: Human sensory performance of test compounds with and without geonol; format: in vivo; details: for % Earthy/Moss Odor: Test Compound Only
In short: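 Panelists first learned the earthy/moss quality from a geonol-only reference, then rated pleasantness, earthy/moss intensity and overall intensity of geonol alone, antagonist alone, and geonol mixed with isointense or low-intensity antagonist on a 0-10 linear scale. Samples were presented in glass jars in randomized order with two-minute intervals.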

[13] = test system: geonol malodor (earthy/moss odor) perception; test: Sensory evaluation of geonol earthy/moss odor in iso-intense binary mixtures (glass jars); format: in vivo, human; details: iso-intense binary mixture
[14] = test system: geonol receptors Olfr339, Olfr1487, Olfr1A1, OR11A1, Olfr96; test: Antagonists of geonol receptors (Example 11); format: cell-based, mouse and human; design: Inhibition(%): concentration or dose not given beside the values; details: Table 18
[15] = test system: OR2W1 or the OR1A1 olfactory receptor; test: 1-octen-3-ol olfactory receptor antagonist cell-based dose-response vs 1-octen-3-ol EC80
Excerpt: Each cell line was screened with a volatile compound library for their inhibitory properties and potential 1-octen-3-ol smell inhibition.
Single concentration monitoring of the 1-octen-3-ol induced cell activity in the presence or absence of a test compound allowed for the identification of compounds with a putative suppression or inhibitory effect.

[16] = test system: 1-octen-3-ol mushroom/earthy/fungal odor perception; test: Human sensory performance of test compounds with and without 1-octen-3-ol; format: in vivo; details: Test Compound Only
[17] = Table 22, second listing of the same compounds
[18] = Table 22, first listing (r7-r45)
[19] = Low Dilution Test Compound + Geonol (0.1%)
[20] = Medium Dilution Test Compound + Geonol (0.1%)

Row | Compound | IC50 [1] [µM] | Olfr748 % Inhibition [1] [%] | Emax ([2]; Table 22, first listing) [%] | IC50 [2, 18] [µM] | IC50 ([4]; Table 22, first listing) [µM] | Olfr741 % Inhibition ([4]; Table 22, first listing) [%] | IC50 [4, 17] [µM] | Olfr741 % Inhibition [4, 17] [%] | IC50 [5, 18] [µM] | Olfr738 % Inhibition ([5]; Table 22, first listing) [%] | Olfr738 % Inhibition [5, 17] [%] | IC50 [6] [µM] | Olfr743 % Inhibition [6] [%] | Olfr739 % Inhibition ([7]; Table 22, first listing) [%] | IC50 [7] [µM] | IC50 [8] [µM] | Olfr749 % Inhibition [8] [%] | IC50 [10] [µM] | Olfr746 % Inhibition [10] [%] | % Earthy/Moss Odor [12] [%] | other results
1 | C=C1CC[C@H]2O[C@]2(C)CC[C@@H]2[C@@H]1CC2(C)C | 121 | 9.24 | 203 | 13.4 | 108 | 59.56 | 121 | 9.24 | 18.1 | 54.69 | 38.36 | 192 | 38.36 | 102.21 | 19.5 | 61.3 | 91.71 | 85.9 | 13.17 | – | Emax [2, 17]: 13.2%; Emax ([3]; Table 22, first listing): 63%; Emax [3, 17]: 91.7%; IC50 [3, 18]: 99.1 µM; Olfr739 % Inhibition [7, 17]: 55.20%; IC50 [9]: 113 µM; Olfr744 % Inhibition [9]: 55.20%
2 | 1-(3,3-dimethylcyclohexen-1-yl)pent-4-en-1-one; 1-(5,5-dimethylcyclohexen-1-yl)pent-4-en-1-one | 81.6 | 66.47 | – | – | 131 | 124.57 | 81.6 | 66.47 | – | 33.49 | 59.11 | 210 | 59.11 | – | – | 46.2 | 90.61 | 89.4 | 94.28 | 34.50 | IC50 [11]: 111 µM and 148 µM; Olfr740 % Inhibition ([2]; Table 22, first listing): 179.31%; IC50 ([2]; Table 22, first listing): 1.68 µM; Olfr740 % Inhibition [2, 17]: 94.28%; Olfr742 % Inhibition ([3]; Table 22, first listing): 146.91%; IC50 ([3]; Table 22, first listing): 4.3 µM; Olfr742 % Inhibition [3, 17]: 90.61%; IC50 ([5]; Table 22, first listing): 6.29 µM; % Earthy/Moss Odor Remaining [12, 19]: 85.80%; % Earthy/Moss Odor Remaining [12, 20]: 72.30%; % Remaining in human sensory tests [13]: 58* %
3 | 3-(4-hydroxy-4-methylpentyl)cyclohex-3-ene-1-carbaldehyde; 4-(4-hydroxy-4-methylpentyl)cyclohex-3-ene-1-carbaldehyde | 213 | 48.14 | – | – | – | – | 213 | 48.14 | – | 14.67 | – | – | – | – | – | 233 | 62.05 | 373 | 43.95 | 15.40 | % Inhibition [11]: 60%; IC50 [11]: 217 µM; Olfr740 % Inhibition ([2]; Table 22, first listing): 72.15%; IC50 ([2]; Table 22, first listing): 185 µM; Olfr740 % Inhibition [2, 17]: 43.95%; Olfr742 % Inhibition ([3]; Table 22, first listing): 41.42%; IC50 ([3]; Table 22, first listing): 182 µM; Olfr742 % Inhibition [3, 17]: 62.05%; IC50 ([5]; Table 22, first listing): 166 µM; % Earthy/Moss Odor Remaining [12, 19]: 85.70%; % Earthy/Moss Odor Remaining [12, 20]: 78.70%
4 | CC1(C)CCC[C@]2(C)CC(=O)CC[C@@H]12 (racemic) [(+−)-perhydro-5,5,8A-trimethyl-2-trans-naphthalenone] | 106 | 65.60 | 127 | 1.96 | 148 | 96.86 | – | – | 2.74 | 101.72 | – | 264 | 123.10 | 68.44 | 13.9 | 41.5 | 96.98 | 308 | 81.36 | 45.20 | IC50 [14]: 96.7 µM; Inhibition(%) [14]: 71%; IC50 ([15]; 1-octen-3-ol at EC80): 63.2 µM; % Inhibition ([15]; maximum inhibition normalized to baseline agonist activity): 102.97%; % Mushroom/Earthy/Fungal Odor [16]: 30.80%; IC50 [9]: 74.7 µM; Olfr744 % Inhibition [9]: 107.89%
